Experiments:
[1] = biological target: T1, Methionine aminopeptidase (Escherichia coli K-12, UniProt P0AE18); assay: Inhibitory concentration required against Escherichia coli MetAP1 (150 nM)
T1 sequence (P0AE18 whole entry): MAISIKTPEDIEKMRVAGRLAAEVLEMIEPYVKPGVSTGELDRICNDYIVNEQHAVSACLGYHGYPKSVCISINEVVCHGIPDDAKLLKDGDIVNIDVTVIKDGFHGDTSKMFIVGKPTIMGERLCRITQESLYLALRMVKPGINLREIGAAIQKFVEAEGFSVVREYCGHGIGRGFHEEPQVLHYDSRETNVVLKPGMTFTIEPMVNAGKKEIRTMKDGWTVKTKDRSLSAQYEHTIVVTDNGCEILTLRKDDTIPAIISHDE

[2] = biological target: T2, Methionine aminopeptidase 1 (Saccharomyces cerevisiae S288c, UniProt Q01662); assay: Inhibitory concentration required against Saccharomyces cerevisiae MetAP1 (330 nM)
T2 sequence (Q01662 whole entry): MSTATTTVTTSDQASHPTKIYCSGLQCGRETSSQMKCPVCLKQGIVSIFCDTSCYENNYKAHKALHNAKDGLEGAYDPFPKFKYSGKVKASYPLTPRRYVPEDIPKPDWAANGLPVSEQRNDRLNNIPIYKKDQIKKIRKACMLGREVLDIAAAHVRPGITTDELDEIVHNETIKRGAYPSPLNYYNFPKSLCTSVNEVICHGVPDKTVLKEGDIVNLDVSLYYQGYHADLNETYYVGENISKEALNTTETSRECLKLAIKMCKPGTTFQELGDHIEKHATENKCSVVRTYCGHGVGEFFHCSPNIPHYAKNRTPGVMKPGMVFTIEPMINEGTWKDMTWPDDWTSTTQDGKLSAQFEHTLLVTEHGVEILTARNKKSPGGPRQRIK

Compound	IC50 [1] [nM]	IC50 [2] [nM]
O=C(Nc1scnc1C(=O)Nc1nccs1)c1ccccc1F	76	990
CC(C)=CCC(=O)Nc1cccnc1C(=O)Nc1nccs1	–	140
CN(C)CC(=O)Nc1scnc1C(=O)Nc1nccs1	300	10500
O=C(Nc1nccs1)c1cscn1	110	2260
CCC(=O)Nc1scnc1C(=O)Nc1nccs1	81	220
Cc1scnc1C(=O)Nc1nccs1	180	9820
O=C(Nc1scnc1C(=O)Nc1nccs1)c1ccc(F)cc1	110	480
O=C(CN1CCOCC1)Nc1scnc1C(=O)Nc1nccs1	110	4710
O=C(Nc1nccs1)c1ncsc1Cc1ccccc1	170	3800
CC(C)c1scnc1C(=O)Nc1nccs1	220	7200
CC(C)Cc1scnc1C(=O)Nc1nccs1	100	990
O=C(Nc1scnc1C(=O)Nc1nccs1)c1cccc(Cl)c1	270	1830
Nc1scnc1C(=O)Nc1nccs1	1970	13200
O=C(O)CC(=O)Nc1scnc1C(=O)Nc1nccs1	88	4910
CCc1scnc1C(=O)Nc1nccs1	180	7640
CCCCCc1scnc1C(=O)Nc1nccs1	160	980
O=C(CN1CCCCC1)Nc1scnc1C(=O)Nc1nccs1	140	1450
COC(Cc1scnc1C(=O)Nc1nccs1)C(C)C (stereo not drawn)	89	500
CC(C)=CCCC(C)Cc1scnc1C(=O)Nc1nccs1 (stereo not drawn)	170	2110
CCCCCCCCCCCc1scnc1C(=O)Nc1nccs1	76500	> 100000
O=C(Nc1nccs1)c1ncsc1-c1ccccc1	210	3410
COCC(=O)Nc1scnc1C(=O)Nc1nccs1	92	1530
COc1ccccc1C(=O)Nc1scnc1C(=O)Nc1nccs1	190	3320
O=C(Nc1nccs1)c1ncsc1Cc1ccc(F)cc1Cl	82	900
C=CCC(=O)Nc1cccnc1C(=O)Nc1nccs1	130	–
O=C(CN1CCCC1)Nc1scnc1C(=O)Nc1nccs1	160	860

The remaining molecules from weak to strong by IC50 [1], led by results:

IC50 [1] [nM]	IC50 [2] [nM]	Compound
76	2650	CC(=O)OCC(=O)Nc1scnc1C(=O)Nc1nccs1
74	880	COC(C)Cc1scnc1C(=O)Nc1nccs1 (stereo not drawn)
66	670	CCOC(=O)CC(=O)Nc1scnc1C(=O)Nc1nccs1
65	660	O=C(Nc1nccs1)c1ncsc1CCc1ccccc1
60	4620	CC(C)(C)OC(=O)Nc1scnc1C(=O)Nc1nccs1
54	2630	C=CCC(=O)Nc1scnc1C(=O)Nc1nccs1
53	–	O=C(CN1CCCCC1)Nc1cccnc1C(=O)Nc1nccs1
44	370	C=CC(C)C(=O)Nc1scnc1C(=O)Nc1nccs1 (stereo not drawn)
42	6380	O=C(Nc1nccs1)c1ncsc1NC(=O)C1CC1
40	250	O=C(Nc1nccs1)c1ncsc1NC(=O)C1CCC1
29	1120	O=C(COCc1ccccc1)Nc1scnc1C(=O)Nc1nccs1
24	130	O=C(Nc1nccs1)c1ncsc1NC(=O)C1CCCC1
